Assay results: ChEMBL document CHEMBL6177950, “Discovery of potent and selective CDK2 inhibitors with high safety and favorable bioavailability for the treatment of cancer” (Eur J Med Chem, 2025)
The source made the active and inactive calls. The rule behind the calls is not given here.

Experiments:
[1] = test system: OVCAR-3; assay: Antitumor activity against human OVCAR-3 cells xenografted in nude BALB/c mouse model assessed as tumor growth inhibition at 80 mg/kg, po administered once daily for 21 days; assay type: functional, organism-based; conditions: time 21.0 day
[2] = test system: OVCAR-3; assay: Antitumor activity against human OVCAR-3 cells xenografted in nude BALB/c mouse assessed as reduction in tumor cells at 40 to 80 mg/kg, po administered once daily for 21 days by H and E staining analysis; assay type: functional, organism-based; conditions: dose 40-80 mg/kg, time 21.0 day
[3] = test system: OVCAR-3; assay: Induction of cell senescence in human OVCAR-3 cells assessed as increase in beta galactosidase activity incubated for 24 hrs by staining based inverted microscopic analysis; assay type: functional; conditions: dose 1-2 µM
[4] = Acute toxicity in ICR mouse assessed as pathological changes in lung at 1000 to 2500 mg/kg, po administered once for 14 days by H and E staining analysis; assay type: organism-based; conditions: in vivo, 336 h, dose 1000-2500 mg/kg, time 14 day
[5] = Half life in Sprague-Dawley rat at 2 mg/kg, iv by LC-MS/MS analysis; assay type: ADME, organism-based; conditions: in vivo
[6] = test system: OVCAR-3; assay: Induction of apoptosis in human OVCAR-3 cells incubated for 24 hrs by Annexin V-FITC/PI staining based flow cytometry analysis; assay type: functional, cell-based; conditions: dose 1-2 µM
[7] = target: Cyclin-dependent kinase 4/cyclin D1 (Homo sapiens, UniProt P11802); assay: Inhibition of CDK4/Cyclin D1 (unknown origin) pre-incubated for 10 mins followed by ATP/substrate addition and measured after 60 mins by ADP-Glo assay; assay type: protein-complex assay
[8] = test system: OVCAR-3; assay: Induction of apoptosis in human OVCAR-3 cells assessed as late apoptotic cells at 2 uM incubated for 24 hrs by Annexin V-FITC/PI staining based flow cytometry analysis (reference value: 2.67%); assay type: functional
[9] = test system: OVCAR-3; assay: Antitumor activity against human OVCAR-3 cells xenografted in nude BALB/c mouse model assessed as tumor growth inhibition administered as po once daily for 21 days; assay type: functional, organism-based; conditions: dose 40-80 mg/kg, time 21.0 day
[10] = test system: OVCAR-3; assay: Induction of cell cycle arrest in human OVCAR-3 cells assessed as accumulation of cells at G1 phase at 2 uM incubated for 24 hrs by flow cytometry analysis (reference value: 67.73%); assay type: functional
[11] = test system: OVCAR-3; assay: Upregulation of JUN gene expression in human OVCAR-3 cells by GSEA; assay type: functional, cell-based
[12] = target: Cyclin-dependent kinase 2/cyclin E1 (Homo sapiens, UniProt P24941); assay: Inhibition of CDK2/Cyclin E1 (unknown origin) pre-incubated for 10 mins followed by ATP/substrate addition and measured after 60 mins by ADP-Glo assay; assay type: protein-complex assay
[13] = Acute toxicity in ICR mouse assessed as reduction in body weight at 1000 to 2500 mg/kg, po administered once and measured immediately; assay type: organism-based; conditions: in vivo, dose 1000-2500 mg/kg
[14] = test system: OVCAR-3; assay: Induction of cell cycle arrest in human OVCAR-3 cells assessed as accumulation of cells at G2 phase at 2 uM incubated for 24 hrs by flow cytometry analysis (reference value: 21.77%); assay type: functional
[15] = test system: MCF7; assay: Antiproliferative activity against wild type human MCF7 cells assessed as cell growth inhibition; assay type: functional, cell-based
[16] = test system: OVCAR-3; assay: Induction of apoptosis in human OVCAR-3 cells assessed as late apoptotic cells at 1 uM incubated for 24 hrs by Annexin V-FITC/PI staining based flow cytometry analysis (reference value: 2.67%); assay type: functional
[17] = Cmax in Sprague-Dawley rat at 20 mg/kg, po by LC-MS/MS analysis; assay type: ADME, organism-based; conditions: in vivo
[18] = Acute toxicity in ICR mouse assessed as effect on liver weight at 1000 to 2500 mg/kg, po administered once for 14 days; assay type: organism-based; conditions: in vivo, 336 h, dose 1000-2500 mg/kg, time 14 day
[19] = Acute toxicity in ICR mouse assessed as pathological changes in liver at 1000 to 2500 mg/kg, po administered once for 14 days by H and E staining analysis; assay type: organism-based; conditions: in vivo, 336 h, dose 1000-2500 mg/kg, time 14 day
[20] = Tmax in Sprague-Dawley rat at 20 mg/kg, po by LC-MS/MS analysis; assay type: ADME, organism-based; conditions: in vivo
[21] = Acute toxicity in ICR mouse assessed as effect on spleen weight at 1000 to 2500 mg/kg, po administered once for 14 days; assay type: organism-based; conditions: in vivo, 336 h, dose 1000-2500 mg/kg, time 14 day
[22] = Acute toxicity in ICR mouse assessed as pathological changes in heart at 1000 to 2500 mg/kg, po administered once for 14 days by H and E staining analysis; assay type: organism-based; conditions: in vivo, 336 h, dose 1000-2500 mg/kg, time 14 day
[23] = Toxicity in nude BALB/c mouse xenografted with human OVCAR-3 cells assessed as increase in body weight at 40 to 80 mg/kg, po administered once daily for 21 days; assay type: organism-based; conditions: in vivo, 504 h, dose 40-80 mg/kg, time 21 day
[24] = test system: OVCAR-3; assay: Induction of apoptosis in human OVCAR-3 cells assessed as early apoptotic cells at 2 uM incubated for 24 hrs by Annexin V-FITC/PI staining based flow cytometry analysis (reference value: 1.25%); assay type: functional
[25] = Acute toxicity in ICR mouse assessed as effect on lung weight at 1000 to 2500 mg/kg, po administered once for 14 days; assay type: organism-based; conditions: in vivo, 336 h, dose 1000-2500 mg/kg, time 14 day
[26] = Acute toxicity in ICR mouse assessed as pathological changes in kidney at 1000 to 2500 mg/kg, po administered once for 14 days by H and E staining analysis; assay type: organism-based; conditions: in vivo, 336 h, dose 1000-2500 mg/kg, time 14 day
[27] = Acute toxicity in ICR mouse assessed as effect on kidney weight at 1000 to 2500 mg/kg, po administered once for 14 days; assay type: organism-based; conditions: in vivo, 336 h, dose 1000-2500 mg/kg, time 14 day
[28] = test system: OVCAR-3; assay: Induction of apoptosis in human OVCAR-3 cells assessed as necrotic cells at 1 uM incubated for 24 hrs by Annexin V-FITC/PI staining based flow cytometry analysis (reference value: 0.87%); assay type: functional
[29] = test system: OVCAR-3; assay: Induction of apoptosis in human OVCAR-3 cells assessed as necrotic cells at 2 uM incubated for 24 hrs by Annexin V-FITC/PI staining based flow cytometry analysis (reference value: 0.87%); assay type: functional
[30] = C0 in Sprague-Dawley rat at 2 mg/kg, iv by LC-MS/MS analysis; assay type: ADME, organism-based; conditions: in vivo
[31] = test system: OVCAR-3; assay: Upregulation of Bcl2l1gene expression in human OVCAR-3 cells by GSEA; assay type: functional, cell-based
[32] = Acute toxicity in ICR mouse assessed as increase in body weight at 1000 to 2500 mg/kg, po administered once and measured after 1 week; assay type: organism-based; conditions: in vivo, 168 h, dose 1000-2500 mg/kg, time 1 weeks
[33] = test system: OVCAR-3; assay: Induction of cell cycle arrest in human OVCAR-3 cells assessed as accumulation of cells at G2 phase at 1 uM incubated for 24 hrs by flow cytometry analysis (reference value: 21.77%); assay type: functional
[34] = test system: OVCAR-3; assay: Induction of apoptosis in human OVCAR-3 cells assessed as upregulation of PARP cleavage incubated for 24 hrs by Western blot analysis; assay type: functional, cell-based
[35] = test system: OVCAR-3; assay: Upregulation of apoptosis-related signaling pathway gene expression in human OVCAR-3 cells by GSEA; assay type: functional, cell-based
[36] = AUC (0 to infinity) in Sprague-Dawley rat at 20 mg/kg, po by LC-MS/MS analysis; assay type: ADME, organism-based; conditions: in vivo
[37] = test system: OVCAR-3; assay: Upregulation of JUNB gene expression in human OVCAR-3 cells by GSEA; assay type: functional, cell-based
[38] = test system: OVCAR-3; assay: Antitumor activity against human OVCAR-3 cells xenografted in nude BALB/c mouse assessed as suppression of tumor cell proliferation at 40 to 80 mg/kg, po administered once daily for 21 days by Ki67 staining based analysis; assay type: functional, organism-based; conditions: dose 40-80 mg/kg, time 21.0 day

Cyclin-dependent kinase 4/cyclin D1, sequence (P11802 whole entry): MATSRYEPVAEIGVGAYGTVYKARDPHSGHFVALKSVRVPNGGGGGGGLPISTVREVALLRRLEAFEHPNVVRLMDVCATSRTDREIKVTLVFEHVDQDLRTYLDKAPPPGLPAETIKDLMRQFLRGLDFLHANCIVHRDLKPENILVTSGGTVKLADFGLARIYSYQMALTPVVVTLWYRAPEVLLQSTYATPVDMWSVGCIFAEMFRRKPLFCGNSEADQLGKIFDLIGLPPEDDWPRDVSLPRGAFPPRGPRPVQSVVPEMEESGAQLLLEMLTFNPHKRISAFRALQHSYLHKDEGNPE
Cyclin-dependent kinase 4/cyclin D1, sequence (P24385 whole entry, further chain): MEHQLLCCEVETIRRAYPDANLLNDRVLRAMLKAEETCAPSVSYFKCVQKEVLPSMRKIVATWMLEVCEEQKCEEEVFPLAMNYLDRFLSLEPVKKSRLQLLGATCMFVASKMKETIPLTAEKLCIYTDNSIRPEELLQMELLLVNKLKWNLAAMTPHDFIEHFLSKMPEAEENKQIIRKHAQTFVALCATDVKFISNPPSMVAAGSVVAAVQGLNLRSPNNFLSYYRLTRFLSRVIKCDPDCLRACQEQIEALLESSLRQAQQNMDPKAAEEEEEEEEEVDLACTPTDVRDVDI

SMILES: CCC(C)n1cc(-c2nc(NC3CCN(S(=O)(=O)C4CC4)CC3)ncc2F)cc(F)c1=O (stereo not drawn)
- Activity [1]: Active
- Activity [2]: Active
- Activity [3]: Dose-dependent-effect
- Activity [4]: Non-toxic
- half-life [5]: 55.8 min
- Activity [6]: Dose-dependent-effect
- IC50 [7]: 103 nM
- Activity [8]: 13.2%
- Activity [9]: Dose-dependent-effect
- Activity [10]: 96.27%
- Activity [11]: Active
- IC50 [12]: 0.9 nM
- Activity [13]: Toxic
- Activity [14]: 2.09%
- IC50 [15]: 186 nM
- Activity [16]: 7.72%
- Cmax [17]: 2130 ng/mL
- Activity [18]: Non-toxic
- Activity [19]: Non-toxic
- Tmax [20]: 30 min
- Activity [21]: Non-toxic
- Activity [22]: Non-toxic
- Activity [23]: Non-toxic
- Activity [24]: 3.81%
- Activity [25]: Non-toxic
- Activity [26]: Non-toxic
- Activity [27]: Non-toxic
- Activity [28]: 5.01%
- Activity [29]: 3.74%
- C0 [30]: 1670 ng/mL
- Activity [31]: Active
- Activity [32]: Non-toxic
- Activity [33]: 4.3%
- Activity [34]: Dose-dependent-effect
- Activity [35]: Active
- AUC(0-inf) [36]: 11800 ng·h/mL
- Activity [37]: Active
- Activity [38]: Active
